Patent US6245917A, “Crystalline sodium phenytoin monohydrate” (Warner-Lambert Company, priority 1999, dated 2001)

Legend:
Assay type in all cases: physicochemical
[1] = Weight change under controlled humidity conditions, first study (SPM made by the toluene slurry); details: for Percent change based on average of final two weights: monohydrate
Excerpt: Study of weight change under controlled humidity conditions, samples were placed in open vials, which were placed in closed controlled-humidity jars. Relative humidities were controlled using saturated aqueous salt solutions: 58% RH, NaBr; 75% RH, (NH4)2 SO4; 76%, sodium acetate; 84% RH, KBr. Water uptake/loss characteristics of SPM and SPA were compared. Samples were kept at ambient temperature under various relative humidities (RHs) and were periodically weighed. […] The fact that SPM loses significant mass under even high humidity conditions is inconsistent with the loss of only water.

[2] = DSC and TGA thermal analyses
Experimental: Differential scanning calorimetry (DSC) experiments were performed on a Dupont DSC 2000 and thermogravimetric analyses (TGA) were performed on a Dupont TGA 2000. Nitrogen was used as the purge gas and heating rates were 10° C./minute. Standards were run prior to sample analyses; Sn for DSC and calcium oxalate for TGA.
Both SPM and SPA were analyzed by x-ray powder diffraction (XRPD), infrared (IR) spectroscopy, solid-state nuclear magnetic resonance (SSNMR) spectroscopy, differential scanning calorimetry (DSC) and thermogravimetric analysis (TGA). The XRPD patterns of SPM and SPA are quite different and distinguishable. While the IR and SSNMR spectra of SPM and SPA are different, the differences are subtle. SPM and SPA behave quite differently on both DSC and TGA thermal analyses. SPA undergoes endothermic transitions at 364° C. and 409° C. that are accompanied by a weight loss of 72%.

[3] = Repeated water uptake study with solvent-free SPM (dichloromethane preparation)
Excerpt: Study of weight change under controlled humidity conditions, samples were placed in open vials, which were placed in closed controlled-humidity jars. Relative humidities were controlled using saturated aqueous salt solutions: 58% RH, NaBr; 75% RH, (NH4)2 SO4; 76%, sodium acetate; 84% RH, KBr.
A possible cause of the observed weight loss is that some reaction solvent (toluene in this case) from the preparation of SPM remained on the solid and evaporated in the humidity jars. To test this theory, it was decided to prepare SPM, show it to be solvent-free, and repeat the water uptake studies. Dichloromethane was chosen as the organic solvent for the preparation rather than toluene because its lower boiling point should allow it to be removed from the solid more easily and completely. SPM was made by stirring a slurry of SPA and one equivalent of water in dichloromethane for 2 days, then isolation by filtration and air-drying of the solid SPM.
The remainder of the SPM sample was allowed to dry in an open jar under ambient conditions for about 1 week. It was then characterized by XRPD elemental analysis, and Karl Fischer (KF) analysis. The sample appears to be pure SPM containing very little, if any, residual solvent.
Both SPM and SPA increased in weight about 20% when equilibrium was reached (constant weight) at each humidity utilized. The samples were analyzed by XRPD after completion of the water uptake experiments. […] The nature of this form has not been determined.

## O=C1NC(=O)C(c2ccccc2)(c2ccccc2)N1 [SPM, sodium phenytoin monohydrate]
[1]; 58% RH
  Percent change based on average of final two weights: -10%
[1]; 75% RH
  Percent change based on average of final two weights: -10%
[1]; 84% RH
  Percent change based on average of final two weights: -9%
[1]; all humidities utilized, ambient temperature
  weight lost on reaching constant weight: 10%
[2]; DSC, nitrogen, 10° C./minute, monohydrate
  endothermic transition temperature: about 65 °C
[2]; TGA, transition at about 65° C.
  weight loss accompanying the low-temperature endothermic transition: 5%
[3]; 58% RH, day 0 (starting weight), monohydrate
  sample weight: 1.5057 g
[3]; 58% RH, day 1, monohydrate
  change in starting weight: +0.0186 g
  sample weight: 1.5243 g
[3]; 58% RH, day 2, monohydrate
  change in starting weight: +0.0269 g
  sample weight: 1.5326 g
[3]; 58% RH, day 3, monohydrate
  change in starting weight: +0.0384 g
  sample weight: 1.5441 g
[3]; 58% RH, day 4, monohydrate
  change in starting weight: +0.0510 g
  sample weight: 1.5567 g
[3]; 58% RH, day 5, monohydrate
  change in starting weight: +0.0620 g
  sample weight: 1.5677 g
[3]; 58% RH, day 6, monohydrate
  change in starting weight: +0.0717 g
  sample weight: 1.5774 g
[3]; 58% RH, day 7, monohydrate
  change in starting weight: +0.0816 g
  sample weight: 1.5873 g
[3]; 58% RH, day 8, monohydrate
  change in starting weight: +0.0940 g
  sample weight: 1.5997 g
[3]; 58% RH, day 10, monohydrate
  change in starting weight: +0.1185 g
  sample weight: 1.6242 g
[3]; 58% RH, day 11, monohydrate
  change in starting weight: +0.1340 g
  sample weight: 1.6397 g
[3]; 58% RH, day 12, monohydrate
  change in starting weight: +0.1486 g
  sample weight: 1.6543 g
[3]; 58% RH, day 13, monohydrate
  change in starting weight: +0.1555 g
  sample weight: 1.6612 g
[3]; 58% RH, day 14, monohydrate
  change in starting weight: +0.1633 g
  sample weight: 1.6690 g
[3]; 58% RH, day 15, monohydrate
  change in starting weight: +0.1719 g
  sample weight: 1.6776 g
[3]; 58% RH, day 16, monohydrate
  change in starting weight: +0.1794 g
  sample weight: 1.6851 g
[3]; 58% RH, day 17, monohydrate
  change in starting weight: +0.1860 g
  sample weight: 1.6917 g
[3]; 58% RH, day 21, monohydrate
  change in starting weight: +0.2176 g
  sample weight: 1.7233 g
[3]; 58% RH, day 23, monohydrate
  change in starting weight: +0.2323 g
  sample weight: 1.7380 g
[3]; 58% RH, day 26, monohydrate
  change in starting weight: +0.2525 g
  sample weight: 1.7582 g
[3]; 58% RH, day 35
  change in starting weight: +0.2556 g
  sample weight: 1.7613 g
[3]; 58% RH, day 42
  change in starting weight: +0.2511 g
  sample weight: 1.7568 g
[3]; 58% RH, monohydrate
  Percent change based on average of final two weights: +17%
[3]; 75% RH, day 0 (starting weight), monohydrate
  sample weight: 1.5013 g
[3]; 75% RH, day 1, monohydrate
  change in starting weight: +0.0470 g
  sample weight: 1.5483 g
[3]; 75% RH, day 2, monohydrate
  change in starting weight: +0.0930 g
  sample weight: 1.5943 g
[3]; 75% RH, day 3, monohydrate
  change in starting weight: +0.1386 g
  sample weight: 1.6399 g
[3]; 75% RH, day 4, monohydrate
  change in starting weight: +0.1819 g
  sample weight: 1.6832 g
[3]; 75% RH, day 5, monohydrate
  change in starting weight: +0.2205 g
  sample weight: 1.7218 g
[3]; 75% RH, day 6, monohydrate
  change in starting weight: +0.2552 g
  sample weight: 1.7565 g
[3]; 75% RH, day 7, monohydrate
  change in starting weight: +0.2874 g
  sample weight: 1.7887 g
[3]; 75% RH, day 8, monohydrate
  change in starting weight: +0.2752 g
  sample weight: 1.7765 g
[3]; 75% RH, day 10, monohydrate
  change in starting weight: +0.2725 g
  sample weight: 1.7738 g
[3]; 75% RH, day 11, monohydrate
  change in starting weight: +0.2768 g
  sample weight: 1.7781 g
[3]; 75% RH, day 12, monohydrate
  change in starting weight: +0.1796 g
  sample weight: 1.7809 g
[3]; 75% RH, day 13, monohydrate
  change in starting weight: +0.2678 g
  sample weight: 1.7781 g
[3]; 75% RH, day 14, monohydrate
  change in starting weight: +0.2755 g
  sample weight: 1.7768 g
[3]; 75% RH, day 15, monohydrate
  change in starting weight: +0.2755 g
  sample weight: 1.7768 g
[3]; 75% RH, day 16, monohydrate
  change in starting weight: +0.2761 g
  sample weight: 1.7774 g
[3]; 75% RH, day 17, monohydrate
  change in starting weight: +0.2741 g
  sample weight: 1.7754 g
[3]; 75% RH, monohydrate
  Percent change based on average of final two weights: +18%
[3]; 84% RH, day 0 (starting weight), monohydrate
  sample weight: 1.5068 g
[3]; 84% RH, day 1, monohydrate
  change in starting weight: +0.0595 g
  sample weight: 1.5663 g
[3]; 84% RH, day 2, monohydrate
  change in starting weight: +0.1159 g
  sample weight: 1.6227 g
[3]; 84% RH, day 3, monohydrate
  change in starting weight: +0.1762 g
  sample weight: 1.6830 g
[3]; 84% RH, day 4, monohydrate
  change in starting weight: +0.2309 g
  sample weight: 1.7377 g
[3]; 84% RH, day 5, monohydrate
  change in starting weight: +0.2801 g
  sample weight: 1.7869 g
[3]; 84% RH, day 6, monohydrate
  change in starting weight: +0.2965 g
  sample weight: 1.8033 g
[3]; 84% RH, day 7, monohydrate
  change in starting weight: +0.2910 g
  sample weight: 1.7978 g
[3]; 84% RH, day 8, monohydrate
  change in starting weight: +0.2932 g
  sample weight: 1.8000 g
[3]; 84% RH, day 10, monohydrate
  change in starting weight: +0.2997 g
  sample weight: 1.8065 g
[3]; 84% RH, day 11, monohydrate
  change in starting weight: +0.3062 g
  sample weight: 1.8130 g
[3]; 84% RH, day 12, monohydrate
  change in starting weight: +0.3099 g
  sample weight: 1.8167 g
[3]; 84% RH, day 13, monohydrate
  change in starting weight: +0.3090 g
  sample weight: 1.8158 g
[3]; 84% RH, day 14, monohydrate
  change in starting weight: +0.3055 g
  sample weight: 1.8123 g
[3]; 84% RH, day 15, monohydrate
  change in starting weight: +0.2996 g
  sample weight: 1.8064 g
[3]; 84% RH, day 16, monohydrate
  change in starting weight: +0.2961 g
  sample weight: 1.8029 g
[3]; 84% RH, day 17, monohydrate
  change in starting weight: +0.2916 g
  sample weight: 1.7984 g
[3]; 84% RH, monohydrate
  Percent change based on average of final two weights: +20%
[3]; each humidity utilized
  crystal form after completion of water uptake experiments (XRPD): another hydrated crystal form was produced
  increase in weight at equilibrium (constant weight): about 20%
